Laboratory results published in patent publication US20100099561A1, “HETEROBICYCLIC ALKYLTHIO-BRIDGED ISOXAZOLINES” (E.I. DU PONT DE NEMOURS AND COMPANY, priority 2008, published 2010).

What was measured:
Type in all cases: in vivo
[1] = test system: corn (Zea mays); assay: Test A preemergence, corn; details: 0 to 100 scale (0 no effect, 100 complete control)
Procedure, shortened: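 In a greenhouse, loam–sand potted species were treated with surfactant-formulated compound, preemergence via directed soil spray and postemergence at 2–10 cm height, one- to two-leaf stage. Response assessed visually at about ten days; 100 means complete control.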

[2] = test system: blackgrass (Alopecurus myosuroides); assay: Test B preemergence, blackgrass; details: scale 0 to 100
Excerpt: (§1) Seeds of plant species selected from blackgrass (Alopecurus myosuroides), downy bromegrass (Bromus tectorum), green foxtail (Setaria viridis), Italian ryegrass (Lolium multiflorum), wheat (Triticum aestivum), wild oat (Avena fatua), catchweed bedstraw (Galium aparine), bermudagrass (Cynodon dactylon), Surinam grass (Brachiaria decumbens), cocklebur (Xanthium strumarium), corn (Zea mays), large crabgrass (Digitaria sanguinalis), woolly cupgrass (Eriochloa villosa), giant foxtail (Setaria faberii), goosegrass (Eleusine indica), johnsongrass (Sorghum halepense), kochia (Kochia scoparia), lambsquarters (Chenopodium album), morningglory (Ipomoea coccinea), nightshade (eastern black nightshade, Solanum ptycanthum), yellow nutsedge (Cyperus esculentus), pigweed (Amaranthus retroflexus), ragweed (common ragweed, Ambrosia elatior), soybean (Glycine max), sunflower (common oilseed sunflower, Helianthus annuus), Russian thistle (Salsola kali), and velvetleaf (Abutilon theophrasti) were planted into a blend of loam soil and sand and treated preemergence with test compounds formulated in a non-phytotoxic solvent mixture which included a surfactant. Treated plants and controls were maintained in a greenhouse for 13 to 15 days, after which time all species were compared to controls and visually evaluated. Plant response ratings, summarized in Table B, are based on a scale of 0 to 100 where 0 is no effect and 100 is complete control. A dash (-) response means no test result.

[3] = test system: green foxtail (Setaria viridis); assay: Test B preemergence, green foxtail; details: scale 0 to 100
Excerpt: as §1

[4] = test system: catchweed bedstraw (Galium aparine); assay: Test B preemergence, catchweed bedstraw; details: scale 0 to 100
Excerpt: as §1

[5] = test system: bermudagrass (Cynodon dactylon); assay: Test B preemergence, bermudagrass; details: scale 0 to 100
Excerpt: as §1

[6] = test system: yellow nutsedge (Cyperus esculentus); assay: Test B preemergence, yellow nutsedge; details: scale 0 to 100
Excerpt: as §1

[7] = test system: Russian thistle (Salsola kali); assay: Test B preemergence, Russian thistle; details: scale 0 to 100
Excerpt: as §1

[8] = test system: velvetleaf (Abutilon theophrasti); assay: Test B preemergence, velvetleaf; details: Preemergence, scale 0 to 100
Excerpt: as §1

[9] = test system: winter barley (Hordeum vulgare); assay: Test C preemergence, winter barley; details: 21 days, scale 0 to 100
Excerpt: (§2) Seeds of plant species selected from annual bluegrass (Poa annua), blackgrass (Alopecurus myosuroides), canarygrass (Phalaris minor), gallium, (catchweed bedstraw, Galium aparine), chickweed (Stellaria media), downy bromegrass (Bromus tectorum), field poppy (Papaver rhoeas), field violet (Viola arvensis), green foxtail (Setaria viridis), deadnettle (henbit deadnettle, Lamium amplexicaule), Italian ryegrass (Lolium multiflorum), kochia (Kochia scoparia), lambsquarters (Chenopodium album), oilseed rape (Brassica napus), pigweed (Amaranthus retroflexus), Russian thistle (Salsola kali), spring barley (Hordeum vulgare), spring wheat (Triticum aestivum), wild buckwheat (Polygonum convolvulus), wild mustard (Sinapis arvensis), wild oat (Avena fatua), wild radish (Raphanus raphanistrum), windgrass (Apera spica-venti), winter barley (Hordeum vulgare), and winter wheat (Triticum aestivum) were planted and treated preemergence with test chemicals formulated in a non-phytotoxic solvent mixture which included a surfactant.
(§3) Treated plants and controls were maintained in a controlled growth environment for 21 days after which time all species were compared to controls and visually evaluated. Plant response ratings, summarized in Table C, are based on a scale of 0 to 100 where 0 is no effect and 100 is complete control. A dash (-) response means no test result.

[10] = test system: downy bromegrass (Bromus tectorum); assay: Test C preemergence, downy bromegrass; details: 21 days, scale 0 to 100
Excerpt: as §2, §3

[11] = test system: wild buckwheat (Polygonum convolvulus); assay: Test C preemergence, wild buckwheat; details: 21 days, scale 0 to 100
Excerpt: as §2, §3

[12] = test system: lambsquarters (Chenopodium album); assay: Test C preemergence, lambsquarters; details: 21 days, scale 0 to 100
Excerpt: as §2, §3

[13] = test system: Russian thistle (Salsola kali); assay: Test C preemergence, Russian thistle; details: 21 days, scale 0 to 100
Excerpt: as §2, §3

[14] = test system: spring wheat (Triticum aestivum); assay: Test C preemergence, spring wheat; details: 21 days, scale 0 to 100
Excerpt: as §2, §3

CC1(C)CC(S(=O)(=O)Cc2c(C(F)(F)F)nc3n(c2=O)CCCC3)=NO1 [Compound 8, 3-[[(4,5-dihydro-5,5-dimethyl-3-isoxazolyl)sulfonyl]methyl]-6,7,8,9-tetrahydro-2-(trifluoromethyl)-4H-pyrido[1,2-α]pyrimidin-4-one]
0: Plant response rating, Corn ([1]; 125 g ai/ha) | Plant response rating, Blackgrass ([2]; 16 g ai/ha) | Plant response rating, Galium ([4]; 16 g ai/ha) | Plant response rating, Galium ([4]; 31 g ai/ha) | Plant response rating, Nutsedge, Yellow ([6]; 16 g ai/ha) | Plant response rating, Russian Thistle ([7]; 16 g ai/ha) | Plant response rating, Russian Thistle ([7]; 31 g ai/ha) | Plant response rating, Russian Thistle ([7]; 62 g ai/ha) | Plant response rating, Russian Thistle ([7]; 125 g ai/ha) | Plant response rating, Velvetleaf ([8]; 16 g ai/ha) | Plant response rating, Velvetleaf ([8]; 31 g ai/ha) | Plant response rating, Barley, Winter ([9]; 16 g ai/ha) | Plant response rating, Barley, Winter ([9]; 31 g ai/ha) | Plant response rating, Barley, Winter ([9]; 62 g ai/ha) | Plant response rating, Barley, Winter ([9]; 125 g ai/ha) | Plant response rating, Bromegrass, Downy ([10]; 16 g ai/ha) | Plant response rating, Bromegrass, Downy ([10]; 31 g ai/ha) | Plant response rating, Bromegrass, Downy ([10]; 62 g ai/ha) | Plant response rating, Bromegrass, Downy ([10]; 125 g ai/ha) | Plant response rating, Buckwheat, Wild ([11]; 16 g ai/ha) | Plant response rating, Buckwheat, Wild ([11]; 31 g ai/ha) | Plant response rating, Buckwheat, Wild ([11]; 62 g ai/ha) | Plant response rating, Lambsquarters ([12]; 16 g ai/ha) | Plant response rating, Lambsquarters ([12]; 31 g ai/ha) | Plant response rating, Lambsquarters ([12]; 62 g ai/ha) | Plant response rating, Lambsquarters ([12]; 125 g ai/ha) | Plant response rating, Russian Thistle ([13]; 16 g ai/ha) | Plant response rating, Russian Thistle ([13]; 31 g ai/ha) | Plant response rating, Russian Thistle ([13]; 62 g ai/ha) | Plant response rating, Russian Thistle ([13]; 125 g ai/ha) | Plant response rating, Wheat, Spring ([14]; 16 g ai/ha) | Plant response rating, Wheat, Spring ([14]; 31 g ai/ha) | Plant response rating, Wheat, Spring ([14]; 62 g ai/ha) | Plant response rating, Wheat, Spring ([14]; 125 g ai/ha)
100: Plant response rating, Blackgrass ([2]; 125 g ai/ha) | Plant response rating, Galium ([4]; 62 g ai/ha) | Plant response rating, Galium ([4]; 125 g ai/ha) | Plant response rating, Bermudagrass ([5]; 16 g ai/ha) | Plant response rating, Bermudagrass ([5]; 31 g ai/ha) | Plant response rating, Bermudagrass ([5]; 62 g ai/ha) | Plant response rating, Bermudagrass ([5]; 125 g ai/ha)
80: Plant response rating, Nutsedge, Yellow ([6]; 125 g ai/ha)
85: Plant response rating, Foxtail, Green ([3]; 31 g ai/ha)
90: Plant response rating, Blackgrass ([2]; 31 g ai/ha) | Plant response rating, Blackgrass ([2]; 62 g ai/ha)
98: Plant response rating, Foxtail, Green ([3]; 62 g ai/ha) | Plant response rating, Foxtail, Green ([3]; 125 g ai/ha)
20: Plant response rating, Corn ([1]; 500 g ai/ha) | Plant response rating, Nutsedge, Yellow ([6]; 31 g ai/ha)
60: Plant response rating, Nutsedge, Yellow ([6]; 62 g ai/ha)
45: Plant response rating, Velvetleaf ([8]; 125 g ai/ha)
70: Plant response rating, Foxtail, Green ([3]; 16 g ai/ha)
35: Plant response rating, Velvetleaf ([8]; 62 g ai/ha)

CC1(C)CC(S(=O)(=O)Cc2c(C(F)(F)F)nc3n(c2=O)CCS3)=NO1 [Compound 6]
35: Plant response rating, Bromegrass, Downy ([10]; 250 g ai/ha) | Plant response rating, Lambsquarters ([12]; 250 g ai/ha)
20: Plant response rating, Barley, Winter ([9]; 250 g ai/ha)
95: Plant response rating, Blackgrass ([2]; 62 g ai/ha) | Plant response rating, Blackgrass ([2]; 125 g ai/ha)
15: Plant response rating, Barley, Winter ([9]; 125 g ai/ha) | Plant response rating, Wheat, Spring ([14]; 250 g ai/ha)
25: Plant response rating, Bromegrass, Downy ([10]; 125 g ai/ha)
0: Plant response rating, Corn ([1]; 125 g ai/ha) | Plant response rating, Corn ([1]; 500 g ai/ha) | Plant response rating, Galium ([4]; 16 g ai/ha) | Plant response rating, Nutsedge, Yellow ([6]; 16 g ai/ha) | Plant response rating, Nutsedge, Yellow ([6]; 31 g ai/ha) | Plant response rating, Nutsedge, Yellow ([6]; 62 g ai/ha) | Plant response rating, Velvetleaf ([8]; 16 g ai/ha) | Plant response rating, Velvetleaf ([8]; 31 g ai/ha) | Plant response rating, Velvetleaf ([8]; 62 g ai/ha) | Plant response rating, Velvetleaf ([8]; 125 g ai/ha) | Plant response rating, Barley, Winter ([9]; 31 g ai/ha) | Plant response rating, Barley, Winter ([9]; 62 g ai/ha) | Plant response rating, Bromegrass, Downy ([10]; 31 g ai/ha) | Plant response rating, Bromegrass, Downy ([10]; 62 g ai/ha) | Plant response rating, Buckwheat, Wild ([11]; 31 g ai/ha) | Plant response rating, Buckwheat, Wild ([11]; 62 g ai/ha) | Plant response rating, Buckwheat, Wild ([11]; 125 g ai/ha) | Plant response rating, Buckwheat, Wild ([11]; 250 g ai/ha) | Plant response rating, Lambsquarters ([12]; 31 g ai/ha) | Plant response rating, Lambsquarters ([12]; 62 g ai/ha) | Plant response rating, Lambsquarters ([12]; 125 g ai/ha) | Plant response rating, Russian Thistle ([13]; 31 g ai/ha) | Plant response rating, Russian Thistle ([13]; 62 g ai/ha) | Plant response rating, Russian Thistle ([13]; 125 g ai/ha) | Plant response rating, Wheat, Spring ([14]; 31 g ai/ha) | Plant response rating, Wheat, Spring ([14]; 62 g ai/ha) | Plant response rating, Wheat, Spring ([14]; 125 g ai/ha)
100: Plant response rating, Foxtail, Green ([3]; 125 g ai/ha) | Plant response rating, Galium ([4]; 125 g ai/ha) | Plant response rating, Bermudagrass ([5]; 16 g ai/ha) | Plant response rating, Bermudagrass ([5]; 31 g ai/ha) | Plant response rating, Bermudagrass ([5]; 62 g ai/ha) | Plant response rating, Bermudagrass ([5]; 125 g ai/ha)
50: Plant response rating, Blackgrass ([2]; 16 g ai/ha) | Plant response rating, Foxtail, Green ([3]; 16 g ai/ha) | Plant response rating, Foxtail, Green ([3]; 31 g ai/ha) | Plant response rating, Foxtail, Green ([3]; 62 g ai/ha) | Plant response rating, Galium ([4]; 31 g ai/ha) | Plant response rating, Galium ([4]; 62 g ai/ha)
80: Plant response rating, Blackgrass ([2]; 31 g ai/ha)
45: Plant response rating, Nutsedge, Yellow ([6]; 125 g ai/ha)
